Experimental data taken from ChEMBL document CHEMBL3991601, “The target landscape of clinical kinase drugs” (Science, 2017).
The source made the active and inactive calls.

Legend:
[1] = biological target: Uncharacterized aarF domain-containing protein kinase 5 (Homo sapiens, UniProt Q3MIX3)
[2] = biological target: T1, Eukaryotic translation initiation factor 5B (Homo sapiens, UniProt O60841)
T1 sequence (O60841 whole entry): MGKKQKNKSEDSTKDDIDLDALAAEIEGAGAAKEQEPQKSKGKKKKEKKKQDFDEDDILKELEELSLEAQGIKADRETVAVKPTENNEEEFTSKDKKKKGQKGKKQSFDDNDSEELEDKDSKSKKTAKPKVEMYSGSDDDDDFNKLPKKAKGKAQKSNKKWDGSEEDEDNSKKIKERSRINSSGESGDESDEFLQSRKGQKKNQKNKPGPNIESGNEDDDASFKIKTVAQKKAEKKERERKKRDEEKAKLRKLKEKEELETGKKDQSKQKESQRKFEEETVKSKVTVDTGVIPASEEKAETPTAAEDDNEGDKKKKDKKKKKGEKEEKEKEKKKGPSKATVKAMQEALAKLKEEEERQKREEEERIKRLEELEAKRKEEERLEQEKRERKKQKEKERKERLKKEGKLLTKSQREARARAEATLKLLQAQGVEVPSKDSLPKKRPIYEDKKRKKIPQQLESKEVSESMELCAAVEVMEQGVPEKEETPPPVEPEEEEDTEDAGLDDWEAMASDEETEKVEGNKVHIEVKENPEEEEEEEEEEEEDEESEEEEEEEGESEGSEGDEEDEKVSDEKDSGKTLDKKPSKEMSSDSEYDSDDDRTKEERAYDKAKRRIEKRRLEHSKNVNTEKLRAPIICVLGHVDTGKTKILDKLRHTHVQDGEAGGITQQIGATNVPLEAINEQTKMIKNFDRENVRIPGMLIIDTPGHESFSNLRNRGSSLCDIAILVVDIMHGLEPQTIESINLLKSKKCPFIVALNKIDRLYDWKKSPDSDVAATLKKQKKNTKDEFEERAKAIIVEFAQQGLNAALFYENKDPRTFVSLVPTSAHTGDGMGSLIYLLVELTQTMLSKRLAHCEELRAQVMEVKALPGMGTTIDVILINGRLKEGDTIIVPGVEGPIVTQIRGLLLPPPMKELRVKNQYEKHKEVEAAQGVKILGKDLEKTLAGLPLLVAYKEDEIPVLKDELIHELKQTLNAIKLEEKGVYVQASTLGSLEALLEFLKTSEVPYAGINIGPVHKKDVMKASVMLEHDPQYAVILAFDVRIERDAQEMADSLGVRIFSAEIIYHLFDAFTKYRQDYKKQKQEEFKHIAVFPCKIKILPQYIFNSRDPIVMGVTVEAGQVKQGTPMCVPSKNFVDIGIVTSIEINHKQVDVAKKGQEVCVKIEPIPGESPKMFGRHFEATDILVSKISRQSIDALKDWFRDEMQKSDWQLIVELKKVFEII

[3] = biological target: T2, Adenine phosphoribosyltransferase (Homo sapiens, UniProt P07741)
T2 sequence (P07741 whole entry): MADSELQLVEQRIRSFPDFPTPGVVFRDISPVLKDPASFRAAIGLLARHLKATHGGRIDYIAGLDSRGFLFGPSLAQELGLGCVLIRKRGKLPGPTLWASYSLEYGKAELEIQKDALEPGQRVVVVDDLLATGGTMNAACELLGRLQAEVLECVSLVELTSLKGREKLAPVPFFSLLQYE

Obg-like ATPase 1 = Obg-like ATPase 1 (Homo sapiens, UniProt Q9NTK5)
Sequence of Obg-like ATPase 1 (Q9NTK5 whole entry, looked up): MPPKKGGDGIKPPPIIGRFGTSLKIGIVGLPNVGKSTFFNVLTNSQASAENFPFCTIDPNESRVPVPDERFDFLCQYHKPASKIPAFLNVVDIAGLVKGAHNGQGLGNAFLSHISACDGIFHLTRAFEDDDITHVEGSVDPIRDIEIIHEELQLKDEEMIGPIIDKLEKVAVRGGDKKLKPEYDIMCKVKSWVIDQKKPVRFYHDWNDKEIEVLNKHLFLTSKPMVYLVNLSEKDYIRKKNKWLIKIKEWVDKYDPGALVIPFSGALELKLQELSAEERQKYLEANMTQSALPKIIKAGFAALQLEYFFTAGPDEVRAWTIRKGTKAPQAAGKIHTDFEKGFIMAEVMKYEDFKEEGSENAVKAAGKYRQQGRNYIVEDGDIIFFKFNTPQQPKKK

[4] = biological target: T3, ATP-dependent RNA helicase DHX30 (Homo sapiens, UniProt Q7L2E3)
T3 sequence (Q7L2E3 whole entry): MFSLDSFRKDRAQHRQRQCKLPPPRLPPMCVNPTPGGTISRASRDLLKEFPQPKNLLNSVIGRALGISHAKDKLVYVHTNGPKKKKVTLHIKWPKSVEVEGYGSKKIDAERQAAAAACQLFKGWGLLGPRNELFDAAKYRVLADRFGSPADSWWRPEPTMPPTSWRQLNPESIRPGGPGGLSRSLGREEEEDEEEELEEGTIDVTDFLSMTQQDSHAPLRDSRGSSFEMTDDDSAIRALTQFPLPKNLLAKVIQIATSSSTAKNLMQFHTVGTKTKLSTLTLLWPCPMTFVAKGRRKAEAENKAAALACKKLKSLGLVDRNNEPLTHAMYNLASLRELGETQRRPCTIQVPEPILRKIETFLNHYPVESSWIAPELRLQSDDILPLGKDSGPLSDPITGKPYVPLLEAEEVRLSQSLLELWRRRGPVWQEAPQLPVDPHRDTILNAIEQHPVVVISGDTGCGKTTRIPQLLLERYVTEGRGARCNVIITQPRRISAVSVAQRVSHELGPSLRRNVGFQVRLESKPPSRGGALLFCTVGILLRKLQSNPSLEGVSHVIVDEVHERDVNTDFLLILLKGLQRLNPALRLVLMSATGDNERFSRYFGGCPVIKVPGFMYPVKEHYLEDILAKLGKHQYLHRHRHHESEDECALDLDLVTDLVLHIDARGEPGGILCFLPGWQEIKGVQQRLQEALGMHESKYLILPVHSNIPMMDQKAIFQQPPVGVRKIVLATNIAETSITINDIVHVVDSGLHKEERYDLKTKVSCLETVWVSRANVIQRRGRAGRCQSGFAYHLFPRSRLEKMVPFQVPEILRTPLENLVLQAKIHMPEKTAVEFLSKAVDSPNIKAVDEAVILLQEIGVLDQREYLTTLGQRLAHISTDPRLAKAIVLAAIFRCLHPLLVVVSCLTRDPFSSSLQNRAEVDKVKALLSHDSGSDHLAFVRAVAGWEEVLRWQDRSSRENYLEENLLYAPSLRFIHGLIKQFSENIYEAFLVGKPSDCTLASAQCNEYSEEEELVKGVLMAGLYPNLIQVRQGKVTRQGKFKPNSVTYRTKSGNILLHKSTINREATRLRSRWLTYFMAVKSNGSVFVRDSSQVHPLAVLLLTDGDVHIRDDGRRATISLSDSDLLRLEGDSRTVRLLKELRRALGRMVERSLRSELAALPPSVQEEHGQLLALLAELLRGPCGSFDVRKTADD

[5] = biological target: Serine/threonine-protein kinase 24 (Homo sapiens, UniProt Q9Y6E0)
Sequence of Serine/threonine-protein kinase 24 (Q9Y6E0 whole entry): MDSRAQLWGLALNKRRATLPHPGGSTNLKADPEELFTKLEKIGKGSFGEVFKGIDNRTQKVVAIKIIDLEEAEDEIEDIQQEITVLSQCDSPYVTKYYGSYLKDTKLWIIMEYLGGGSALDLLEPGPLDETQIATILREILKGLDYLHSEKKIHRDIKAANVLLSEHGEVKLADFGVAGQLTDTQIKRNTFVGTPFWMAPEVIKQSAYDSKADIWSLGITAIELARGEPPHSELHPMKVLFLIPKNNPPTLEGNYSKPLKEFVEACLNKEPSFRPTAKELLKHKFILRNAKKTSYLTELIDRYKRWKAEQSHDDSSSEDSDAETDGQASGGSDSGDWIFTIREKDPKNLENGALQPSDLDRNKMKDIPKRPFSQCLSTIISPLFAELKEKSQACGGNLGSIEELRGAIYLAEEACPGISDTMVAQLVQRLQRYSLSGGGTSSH

Myosin-10 = Myosin-10 (Homo sapiens, UniProt P35580)
Sequence of Myosin-10 (P35580 whole entry, the tested form may be a part): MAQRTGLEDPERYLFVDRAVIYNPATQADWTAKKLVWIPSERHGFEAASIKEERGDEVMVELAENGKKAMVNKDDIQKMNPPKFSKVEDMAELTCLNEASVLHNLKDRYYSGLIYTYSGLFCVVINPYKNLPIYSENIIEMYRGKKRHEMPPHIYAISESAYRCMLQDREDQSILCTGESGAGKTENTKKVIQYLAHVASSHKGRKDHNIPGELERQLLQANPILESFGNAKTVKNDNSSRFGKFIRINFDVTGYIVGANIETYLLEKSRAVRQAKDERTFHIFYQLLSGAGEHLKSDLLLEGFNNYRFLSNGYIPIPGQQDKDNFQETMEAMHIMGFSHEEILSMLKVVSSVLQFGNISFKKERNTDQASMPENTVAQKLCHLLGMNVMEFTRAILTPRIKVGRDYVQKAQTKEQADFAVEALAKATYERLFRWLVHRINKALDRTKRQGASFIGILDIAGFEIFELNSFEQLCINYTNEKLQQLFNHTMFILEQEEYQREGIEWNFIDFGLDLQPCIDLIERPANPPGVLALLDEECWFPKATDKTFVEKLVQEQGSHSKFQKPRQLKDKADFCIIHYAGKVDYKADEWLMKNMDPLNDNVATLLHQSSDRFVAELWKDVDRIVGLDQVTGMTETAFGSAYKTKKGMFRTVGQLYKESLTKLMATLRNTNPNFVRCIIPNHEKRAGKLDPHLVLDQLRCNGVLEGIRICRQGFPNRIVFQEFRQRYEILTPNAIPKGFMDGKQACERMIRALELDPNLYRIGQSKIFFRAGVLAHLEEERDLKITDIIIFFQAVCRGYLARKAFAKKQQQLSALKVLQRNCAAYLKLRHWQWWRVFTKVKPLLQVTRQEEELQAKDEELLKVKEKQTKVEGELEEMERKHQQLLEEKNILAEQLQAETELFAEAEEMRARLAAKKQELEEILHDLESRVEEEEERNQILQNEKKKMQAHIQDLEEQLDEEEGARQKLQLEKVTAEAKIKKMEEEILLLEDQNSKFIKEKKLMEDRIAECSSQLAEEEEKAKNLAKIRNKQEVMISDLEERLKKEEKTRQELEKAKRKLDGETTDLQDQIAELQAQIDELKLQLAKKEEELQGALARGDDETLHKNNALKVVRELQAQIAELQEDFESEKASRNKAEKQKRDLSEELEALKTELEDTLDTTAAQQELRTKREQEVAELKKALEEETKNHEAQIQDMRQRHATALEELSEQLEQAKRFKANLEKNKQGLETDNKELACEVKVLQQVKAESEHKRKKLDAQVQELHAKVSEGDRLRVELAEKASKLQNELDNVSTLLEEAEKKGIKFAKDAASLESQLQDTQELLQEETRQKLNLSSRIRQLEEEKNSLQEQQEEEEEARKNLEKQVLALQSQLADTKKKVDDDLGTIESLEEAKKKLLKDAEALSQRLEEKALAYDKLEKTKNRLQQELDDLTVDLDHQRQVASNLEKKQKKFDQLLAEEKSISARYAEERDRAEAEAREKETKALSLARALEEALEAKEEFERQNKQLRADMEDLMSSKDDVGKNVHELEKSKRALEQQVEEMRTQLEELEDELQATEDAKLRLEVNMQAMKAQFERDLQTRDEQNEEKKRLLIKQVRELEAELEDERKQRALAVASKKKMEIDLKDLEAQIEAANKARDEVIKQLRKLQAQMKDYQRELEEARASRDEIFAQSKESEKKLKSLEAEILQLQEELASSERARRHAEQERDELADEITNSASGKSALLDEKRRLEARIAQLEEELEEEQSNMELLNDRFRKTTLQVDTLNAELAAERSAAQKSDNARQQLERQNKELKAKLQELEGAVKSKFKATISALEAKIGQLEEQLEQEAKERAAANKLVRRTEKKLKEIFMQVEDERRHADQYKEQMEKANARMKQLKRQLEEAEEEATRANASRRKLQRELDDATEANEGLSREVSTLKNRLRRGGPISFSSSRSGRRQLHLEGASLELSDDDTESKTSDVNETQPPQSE

[6] = biological target: PAS domain-containing serine/threonine-protein kinase (Homo sapiens, UniProt Q96RG2)
[7] = biological target: G protein-coupled receptor kinase 6 (Homo sapiens, UniProt P43250)
Sequence of G protein-coupled receptor kinase 6 (P43250 whole entry): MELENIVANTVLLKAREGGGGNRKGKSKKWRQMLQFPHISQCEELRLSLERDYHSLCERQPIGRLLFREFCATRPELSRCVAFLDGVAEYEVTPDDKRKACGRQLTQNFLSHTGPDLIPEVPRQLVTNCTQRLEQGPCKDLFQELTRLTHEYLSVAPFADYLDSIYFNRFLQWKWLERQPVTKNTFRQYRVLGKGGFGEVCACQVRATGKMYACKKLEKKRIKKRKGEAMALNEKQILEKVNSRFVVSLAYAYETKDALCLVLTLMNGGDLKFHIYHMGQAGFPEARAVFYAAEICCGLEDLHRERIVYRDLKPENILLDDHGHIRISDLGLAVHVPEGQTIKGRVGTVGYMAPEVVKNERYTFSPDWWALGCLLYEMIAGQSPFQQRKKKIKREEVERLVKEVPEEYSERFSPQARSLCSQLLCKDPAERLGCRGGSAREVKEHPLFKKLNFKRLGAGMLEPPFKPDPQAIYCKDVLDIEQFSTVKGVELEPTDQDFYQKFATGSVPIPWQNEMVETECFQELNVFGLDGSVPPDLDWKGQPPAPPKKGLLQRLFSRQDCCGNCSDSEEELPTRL

[8] = biological target: Dual specificity testis-specific protein kinase 2 (Homo sapiens, UniProt Q96S53)
Sequence of Dual specificity testis-specific protein kinase 2 (Q96S53 whole entry): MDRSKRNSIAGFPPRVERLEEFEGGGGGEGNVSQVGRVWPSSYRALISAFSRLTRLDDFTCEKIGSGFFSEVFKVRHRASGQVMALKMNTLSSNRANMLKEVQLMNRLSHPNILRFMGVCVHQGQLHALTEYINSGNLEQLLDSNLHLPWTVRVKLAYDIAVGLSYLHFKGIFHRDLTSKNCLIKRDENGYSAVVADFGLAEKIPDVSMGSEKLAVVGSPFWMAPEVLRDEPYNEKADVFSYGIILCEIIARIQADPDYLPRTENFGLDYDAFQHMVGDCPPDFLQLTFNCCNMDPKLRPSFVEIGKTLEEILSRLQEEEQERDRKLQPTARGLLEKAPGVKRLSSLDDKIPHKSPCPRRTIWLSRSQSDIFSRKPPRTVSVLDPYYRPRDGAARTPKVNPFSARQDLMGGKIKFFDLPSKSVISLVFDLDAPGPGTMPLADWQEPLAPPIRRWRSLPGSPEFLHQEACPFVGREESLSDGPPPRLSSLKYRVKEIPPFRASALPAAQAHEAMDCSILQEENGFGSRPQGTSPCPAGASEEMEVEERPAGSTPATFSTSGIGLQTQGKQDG

Measured: Kd
Note: in the data inactive means no Kd found up to 30 µM.

Sequence of Uncharacterized aarF domain-containing protein kinase 5 (Q3MIX3 whole entry, the tested form may be a part): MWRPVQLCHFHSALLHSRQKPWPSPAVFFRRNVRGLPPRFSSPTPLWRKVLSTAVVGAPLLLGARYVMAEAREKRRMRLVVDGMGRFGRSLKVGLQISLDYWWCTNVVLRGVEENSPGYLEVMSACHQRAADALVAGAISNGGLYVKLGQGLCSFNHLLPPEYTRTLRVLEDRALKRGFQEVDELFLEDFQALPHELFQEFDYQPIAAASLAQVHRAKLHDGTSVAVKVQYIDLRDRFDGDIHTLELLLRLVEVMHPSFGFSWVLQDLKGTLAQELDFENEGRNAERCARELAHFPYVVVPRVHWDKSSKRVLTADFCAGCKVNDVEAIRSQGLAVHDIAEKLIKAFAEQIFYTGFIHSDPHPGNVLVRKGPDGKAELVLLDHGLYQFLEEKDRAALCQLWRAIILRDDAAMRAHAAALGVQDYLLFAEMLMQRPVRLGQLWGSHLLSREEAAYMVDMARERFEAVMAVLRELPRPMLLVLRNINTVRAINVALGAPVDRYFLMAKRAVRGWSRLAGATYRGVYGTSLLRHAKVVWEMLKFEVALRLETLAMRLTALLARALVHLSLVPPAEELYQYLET

N[C@@H]1CCCN(c2c(/C=C3\SC(=O)NC3=O)cccc2-c2ccccc2)C1
inactive: [1] > 30 µM | [2] > 30 µM | [3] > 30 µM | Obg-like ATPase 1 > 30 µM | [4] > 30 µM | [5] > 30 µM | Myosin-10 > 30 µM

CCN1CCN(Cc2ccc(-c3cc4c(N[C@H](C)c5ccccc5)ncnc4[nH]3)cc2)CC1 [AEE-788]
inactive: [6] > 30 µM | [1] > 30 µM | [2] > 30 µM | [3] > 30 µM | [7] > 30 µM | Obg-like ATPase 1 > 30 µM | [4] > 30 µM | [5] > 30 µM

COc1cc(N2CCC(N3CCN(C)CC3)CC2)ccc1Nc1ncnc(Nc2ccccc2S(=O)(=O)C(C)C)n1 [ASP-3026]
inactive: [1] > 30 µM | [2] > 30 µM | [7] > 30 µM | [5] > 30 µM

COc1cc(CCc2cc(NC(=O)c3ccc(N4C[C@@H](C)N[C@@H](C)C4)cc3)n[nH]2)cc(OC)c1 [AZD-4547]
inactive: [6] > 30 µM | [1] > 30 µM | [2] > 30 µM | [3] > 30 µM | [7] > 30 µM | [4] > 30 µM | [5] > 30 µM | Myosin-10 > 30 µM

COc1ccc(-c2ccc3c(N4CCOC[C@@H]4C)nc(N4CCOC[C@@H]4C)nc3n2)cc1CO [AZD-8055]
inactive: [6] > 30 µM | [2] > 30 µM | [8] > 30 µM | [3] > 30 µM | [7] > 30 µM | Obg-like ATPase 1 > 30 µM | [4] > 30 µM | [5] > 30 µM | Myosin-10 > 30 µM

CCS(=O)(=O)N1CC(CC#N)(n2cc(-c3ncnc4[nH]ccc34)cn2)C1 [BARICITINIB]
inactive: [6] > 30 µM | [1] > 30 µM | [2] > 30 µM | [3] > 30 µM | [7] > 30 µM | Obg-like ATPase 1 > 30 µM | [4] > 30 µM | [5] > 30 µM | Myosin-10 > 30 µM

CNC(=O)c1ccc(-c2cnc3ncc(Cc4ccc5ncccc5c4)n3n2)cc1F [CAPMATINIB]
inactive: [1] > 30 µM | [3] > 30 µM | Obg-like ATPase 1 > 30 µM | [4] > 30 µM | Myosin-10 > 30 µM

CO[C@H]1C[C@@H]2CC[C@@H](C)[C@@](O)(O2)C(=O)C(=O)N2CCCC[C@H]2C(=O)O[C@H]([C@H](C)C[C@@H]2CC[C@@H](OCCO)[C@H](OC)C2)CC(=O)[C@H](C)/C=C(\C)[C@@H](O)[C@@H](OC)C(=O)[C@H](C)C[C@H](C)/C=C/C=C/C=C/1C [EVEROLIMUS]
inactive: [6] > 30 µM | [2] > 30 µM | [8] > 30 µM | [3] > 30 µM | [7] > 30 µM | Obg-like ATPase 1 > 30 µM | [4] > 30 µM | Myosin-10 > 30 µM

COC(=O)[C@@]1(O)C[C@H]2O[C@]1(C)n1c3ccccc3c3c4c(c5c6ccccc6n2c5c31)C(=O)NC4 [K-252A]
inactive: [1] > 30 µM | [2] > 30 µM | [8] > 30 µM | [4] > 30 µM | [5] > 30 µM

COc1cc2nccc(Oc3ccc(NC(=O)NC4CC4)c(Cl)c3)c2cc1C(N)=O [LENVATINIB]
inactive: [6] > 30 µM | [1] > 30 µM | [2] > 30 µM | [3] > 30 µM | [7] > 30 µM | Obg-like ATPase 1 > 30 µM | [5] > 30 µM | Myosin-10 > 30 µM

O=C(O)[C@]1(Cc2cccc(Nc3nccs3)n2)CC[C@@H](Oc2cccc(Cl)c2F)CC1 [MK-5108]
inactive: [6] > 30 µM | [1] > 30 µM | [2] > 30 µM | Obg-like ATPase 1 > 30 µM | [4] > 30 µM | [5] > 30 µM | Myosin-10 > 30 µM

OCCn1cc(-c2cnc3nnn(Cc4ccc5ncccc5c4)c3n2)cn1 [PF-04217903]
inactive: [6] > 30 µM | [1] > 30 µM | [3] > 30 µM | Obg-like ATPase 1 > 30 µM | [4] > 30 µM | [5] > 30 µM | Myosin-10 > 30 µM

CNC(=O)c1ccc(C)c(-n2c(C)cc(OCc3ccc(F)cc3F)c(Br)c2=O)c1 [PH-797804]
inactive: [6] > 30 µM | [1] > 30 µM | [2] > 30 µM | [4] > 30 µM

CNC(=O)c1cc(Oc2ccc(NC(=O)Nc3ccc(Cl)c(C(F)(F)F)c3)c(F)c2)ccn1 [REGORAFENIB]
inactive: [6] > 30 µM | [2] > 30 µM | [8] > 30 µM | [3] > 30 µM | [7] > 30 µM | Obg-like ATPase 1 > 30 µM | [4] > 30 µM | [5] > 30 µM | Myosin-10 > 30 µM

CN(C)C(=O)c1cc2cnc(Nc3ccc(N4CCNCC4)cn3)nc2n1C1CCCC1 [RIBOCICLIB]
inactive: [6] > 30 µM | [1] > 30 µM | [2] > 30 µM | [8] > 30 µM | [7] > 30 µM | Obg-like ATPase 1 > 30 µM | [4] > 30 µM | [5] > 30 µM

CNC(=O)CN1CCC(Oc2cc3c(Nc4cccc(Cl)c4F)ncnc3cc2OC)CC1 [SAPITINIB]
inactive: [6] > 30 µM | [1] > 30 µM | [2] > 30 µM | [8] > 30 µM | [7] > 30 µM | [5] > 30 µM

O=C(Nc1cccc(Cl)c1)Nc1ncc(CCNc2ncnc3ccsc23)s1 [SNS-314]
inactive: [1] > 30 µM | [2] > 30 µM | [3] > 30 µM | [7] > 30 µM | Obg-like ATPase 1 > 30 µM | [4] > 30 µM | [5] > 30 µM | Myosin-10 > 30 µM
